Assays:
LV cardiomyocytes [1] = settings: T3 daily over 3 days (P7-P9); same mouse heart
Description: To determine if LV apical cardiomyocytes undergo cell replication, multicolor clonal analysis was used in double-transgenic Myh6-MerCreMer::Rosa26fs-Confetti mice to record the proliferative strategies of individual cardiomyocytes of the apex relative to those of the base.

LV cardiomyocytes [2] = experiment: Immunocytochemistry for S phase (EdU) and mitosis (pH3) after in vivo T3; design: species or system mouse
Description: (§1) T3 was administered, intraperitoneally, to each mouse at the dose indicated. Vehicle was administered by the same route and animals thus treated served as controls. Phosphate buffered saline (PBS) was the vehicle for T3, and soybean oil (Sigma, S7381) was the vehicle for 4-hydroxytamoxifen. DUSP5 or β1-adrenergic receptor-specific siRNA or scrambled siRNA (control) was administered using in vivo-jetPEI®, (VWR, 89129-960). […] P7 and older mice were first anesthetized with 5% isoflurane and then hearts were harvested for further processing. Hearts were also collected at 12, 24 and 40 h after T3 or vehicle treatment and ventricular cardiomyocytes were prepared from the apex and base for immunoblotting, RT-qPCR or immunocytochemistry. Hearts were also collected at various ages after birth for immunoblotting, immunocytochemistry, immunohistochemistry and cardiomyocyte number estimation.
Experiments were performed to determine whether T3-stimulated cell cycle entry in LV apical cardiomyocytes ends in mitosis and cell replication.

[3] = system: ventricular cardiomyocytes; experiment: Ventricular cardiomyocyte numbers after T3/metoprolol therapy in adult mice; format: in vivo, mouse; settings: adult 6-month-old mice; metoprolol 6 μg/g daily i.p. 19 days and/or T3 2 ng/g i.p. 5 daily injections; 2 weeks after cessation
Text: Digestion efficiencies were ˜98%. Cardiomyocytes in these cell suspensions, identified by their size and by rod shape, were counted using a hemocytometer. […]

adult murine heart = experiment: Transthoracic echocardiography after T3/β1-adrenergic receptor blocker therapy; format: in vivo, mouse; settings: for Ejection fraction / FW diastole / FW systole / Fractional shortening / IVS diastole / IVS systole / LV end-diastolic dimension / LV end-systolic dimension / LV mass: adult 6-month-old mice, metoprolol 6 μg/g daily i.p. 19 days and/or T3 2 ng/g i.p. 5 daily injections, 2 weeks after cessation
Description: Approximately 6-month-old mice were used. […] On day-14 of this therapy, mice were additionally given 5 daily injections of T3 (2 ng/g, i.p.) or vehicle. At 2 and 4 weeks after the cessation of T3/β1-adrenergic receptor blocker mono- or combination therapy, the body weights of these mice were measured as well as their cardiac dimensions and function using transthoracic echocardiography.
Experiments were performed to determine whether reversal of cell cycle block using β1-blockade coupled with acute T3 treatment may be sufficient to expand the cardiomyocyte endowment of the adult murine heart. […] Two weeks after cessation of these therapies LV dimensions and contractility were analyzed by echocardiography as well as ventricular cardiomyocyte numbers.

[4] = system: ventricular cardiomyocytes; experiment: Ventricular cardiomyocyte count in early post-neonatal mice after T3; format: in vivo, mouse
Description: To determine the effect of T3 on the ventricular cardiomyocyte population in early post-neonatal mice, T3 daily (i. p.), was administered from P7 to P9. At P12, hearts were enzymatically disaggregated and cell suspensions created from the cardiac ventricles. Digestion efficiencies were ˜98%. Cardiomyocytes in these cell suspensions, identified by their size and by rod shape, were counted using a hemocytometer. T3 increased ventricular cardiomyocyte numbers by ˜18% (FIG. 2D), which indicates an average replication rate of 3.6%/day between P7 and P12.

[5] = system: IGF-1/IGF-1R, MEK1/2, ERK1/2; experiment: T3 proliferative signaling in P8 LV apical and basal cardiomyocytes (immunoblotting); format: in vivo, mouse
Description: as §1
Proliferative signaling by growth factors involves Ras/Raf/mitogen-activated protein kinase (MAPK) kinase (MEK)/extracellular signal-regulated kinase (ERK) signaling. MEK1/2 activate ERK1/2 by phosphorylating T202 and Y204, which is required for ERK1/2 translocation to the nucleus. Sustained ERK1/2 phosphorylation in the nucleus activates multiple transcription factors ultimately resulting in effector protein synthesis and cell proliferation. A single dose of T3 was administered to P8 mice, and cardiomyocytes were isolated from the LV apex or base either immediately after T3 administration (0 h) or after 24 h. […] However, the fraction of nuclear ERK1/2 that remained phosphorylated at 24 h post-T3 treatment was ˜70% lower in LV basal cardiomyocytes (FIG. 4A).

cyclins D1, A2 and B1 = experiment: Acute in vivo T3 challenge: cyclin expression by immunoblotting; design: species or system mouse
Description: as §1, with “4-hydroxytamoxifen.” for “4-hydroxytamoxifen. DUSP5 or β1-adrenergic receptor-specific siRNA or scrambled siRNA (control) was administered using in vivo-jetPEI®, (VWR, 89129-960).”
An acute in vivo T3 challenge was used to identify post-neonatal LV cardiomyocytes that retain proliferative capacity. Increases in myocardial cell cycle-promoting cyclins was explored as a surrogate for identifying cardiomyocytes that are able to enter the cell cycle.

[6] = LV apex cardiomyocytes, post-P8, in vivo T3
[7] = LV basal cardiomyocytes, in vivo T3

N[C@@H](Cc1cc(I)c(Oc2ccc(O)c(I)c2)c(I)c1)C(=O)O [T3, 3,3′,5-triiodo-L-thyronine]
increase in frequency of monochromatic cardiomyocyte clusters in the LV apex relative to the base (LV cardiomyocytes [1]): ~6.5 fold | number of cardiomyocytes in S phase (EdU+) (LV cardiomyocytes [2]; [6]): increased the number of cardiomyocytes in S phase | number of cardiomyocytes in mitosis (pH3+) (LV cardiomyocytes [2]; [6]): increased | S phase in LV basal cardiomyocytes (LV cardiomyocytes [2]; [7]): an increase in S phase was observed | mitosis in LV basal cardiomyocytes (LV cardiomyocytes [2]; [7]): did not enter mitosis | Cardiomyocyte numbers, (millions) [n] [3]: 2.33 ± 0.039^NS millions | Ejection fraction (adult murine heart): 55.7 ± 1.4^NS % | FW diastole (adult murine heart): 0.87 ± 0.01^NS mm | FW systole (adult murine heart): 1.19 ± 0.03^NS mm | Fractional shortening (adult murine heart): 24.8 ± 1.4^NS % | IVS diastole (adult murine heart): 0.94 ± 0.01^NS mm | IVS systole (adult murine heart): 1.29 ± 0.02^NS mm | LV end-diastolic dimension (adult murine heart): 3.60 ± 0.03^NS mm | LV end-systolic dimension (adult murine heart): 2.70 ± 0.05^NS mm | LV mass (adult murine heart): 110 ± 2^NS mg | effect on body weight, ventricular cardiomyocyte numbers, LV mass or any measured LV dimension (adult murine heart; vehicle pretreated adult mice): did not significantly affect | increase in ventricular cardiomyocyte numbers ([4]; T3 daily i.p. P7 to P9, counted at P12): ~18% | average replication rate ([4]; between P7 and P12): 3.6 %/day | fraction of nuclear ERK1/2 that remained phosphorylated, lower in LV basal cardiomyocytes ([5]; 24 h post-T3 treatment, P8 mice, basal vs apical): ~70% | MEK1/2 phosphorylation and nuclear translocation of ERK1/2 ([5]; P8 mice, single dose T3, 24 h, similarly in apical and basal cardiomyocytes): increased MEK1/2 phosphorylation | T3-stimulated expression of IGF-1/IGF-1R ([5]; post-neonatal basal vs apical cardiomyocytes): comparable in basal and apical cardiomyocytes | T3 increase of cyclins D1/A2/B1, more in apical than in basal cardiomyocytes (cyclins D1, A2 and B1; P8 hearts, LV apical vs basal cardiomyocytes): 2-5 fold | expression of cyclins D1, A2 and B1, higher in the LV apex than in the base (cyclins D1, A2 and B1; P8 mice, 40 h after in vivo T3 challenge, LV myocardium): 2.5-100 fold | T3 effect on cyclins in apical or basal cardiomyocytes (cyclins D1, A2 and B1; P16 cardiomyocytes): did not increase cyclins | T3 effect on cyclins D1/A2/B1 in LV apical and basal cardiomyocytes (cyclins D1, A2 and B1; neonatal hearts): increased cyclins D1/A2/B1 similarly in LV apical and basal cardiomyocytes | T3-stimulated expression of cyclins D1, A2 and B1, lower in basal cardiomyocytes (cyclins D1, A2 and B1; post-neonatal basal vs apical cardiomyocytes, 40 h after T3): 2-3 fold

COCCc1ccc(OCC(O)CNC(C)C)cc1 (stereo not drawn) [Metoprolol, metoprolol succinate]
Cardiomyocyte numbers, (millions) [n] [3]: 2.44 ± 0.026 millions | Ejection fraction (adult murine heart): 55.4 ± 1.8% | FW diastole (adult murine heart): 0.92 ± 0.02 mm | FW systole (adult murine heart): 1.20 ± 0.03 mm | Fractional shortening (adult murine heart): 23.4 ± 0.6% | IVS diastole (adult murine heart): 0.96 ± 0.02 mm | IVS systole (adult murine heart): 1.29 ± 0.02 mm | LV end-diastolic dimension (adult murine heart): 3.53 ± 0.07 mm | LV end-systolic dimension (adult murine heart): 2.71 ± 0.06 mm | LV mass (adult murine heart): 113 ± 2 mg

From patent US12295930B2, “Inducing proliferation of cardiomyocytes and therapeutic uses related thereto” (Emory University, priority 2018, dated 2025)
